{"source": "patent US8334313B2", "about": "“Ureido substituted benzoic acid compounds and their use for nonsense suppression and the treatment of disease” (PTC Therapeutics, Inc., priority 2002, dated 2012)", "data": [{"tested_on": "luciferase reporter construct containing a UGA premature termination codon", "test": "cell-based luciferase reporter assay (nonsense suppression / readthrough)", "set-up": "key: *****: both extremely high potency and extremely high efficacy of protein synthesis; ****: extremely high potency of protein synthesis and very high efficacy; ****: very high potency of protein synthesis and extremely high efficacy; ***: both very high potency and very high efficacy of protein synthesis; **: very high potency of protein synthesis and significant efficacy; **: significant potency of protein synthesis and very high efficacy; *: significant potency and efficacy of protein synthesis", "conditions": "ranking combining potency and efficacy of protein synthesis; UGA luciferase reporter stably transfected in 293T Human Embryonic Kidney cells", "description": "Activity measurements in Table I were performed in a cell-based luciferase reporter assay (as described in Section 4.2) comprising a luciferase reporter construct containing a UGA premature termination codon that was stably transfected in 293T Human Embryonic Kidney cells. A small molecule (3-[3-(4-Isopropyl-phenyl)-2,5-dioxoimidazolidin-1-yl]-benzoic acid) known to allow readthrough of premature termination codons, was used as an internal standard. Activity measurements are based on the qualitative relation between the minimum concentration of compound required to produce a given protein in a cell (potency) and the maximum amount of protein produced by the cell (efficacy). Potency and efficacy activities are ranked as either extremely high, very high or significant.\nThe test compounds identified in the nonsense suppression assay (for convenience referred to herein as a “lead” compound) can be tested for biological activity using host cells containing or engineered to contain the target RNA element coupled to a functional readout system. For example, the lead compound can be tested in a host cell engineered to contain the RNA with the premature translation termination codon controlling the expression of a reporter gene. In this example, the lead compounds are assayed in the presence or absence of the RNA with the premature translation termination codon. Compounds that modulate premature translation termination and/or nonsense-mediated mRNA decay in vivo will result in increased expression of the full-length gene, i.e., past the premature termination codon. Alternatively, a phenotypic or physiological readout can be used to assess activity of the target RNA with the premature translation termination codon in the presence and absence of the lead compound. Both the in vitro and in vivo nonsense suppression assays used herein and as described in International Patent Publication WO 01/44516, which is incorporated by reference in its entirety, can be used to identify lead compounds can also be used to determine an EC50 for the lead compounds.\nA stable cell line harboring the […] nonsense-containing luciferase gene is treated with a test compound. Cells are grown in standard medium supplemented with 1% penicillin-streptomycin (P/S) and 10% fetal bovine serum (FBS) to 70% confluency and split 1:1 the day before treatment. The next day, cells are trypsinized and 40,000 cells are added to each well of a 96-well tissue culture dish. Serial dilutions of each compound are prepared to generate a six-point dose response curve spanning 2 logs ([…]). The final concentration of the DMSO solvent remains constant at 1% in each well. Cells treated with 1% DMSO serve as the background standard, and cells treated with gentamicin serve as a positive control.", "values": [{"smiles": "O=C(O)c1cccc(N2C(=O)CN(c3cccc(Br)c3)C2=O)c1", "note": "[Compound 18, 3-[3-(3-bromo-phenyl)-2,5-dioxo-imidazolidin-1-yl]-benzoic acid]", "Activity": "*"}, {"smiles": "O=C(O)c1cccc(N2CCN(c3ccc4c(c3)OC(F)(F)C(F)(F)O4)C2=O)c1", "note": "[Compound 51, 3-[2-Oxo-3-(2,2,3,3-tetrafluoro-2,3-dihydro-benzo[1,4]dioxin-6-yl)-imidazolidin-1-yl]-benzoic acid]", "Activity": "*****"}, {"smiles": "O=C(O)c1cccc(N2CCN(c3ccc(N4CCCCC4)cc3)C2=O)c1", "note": "[Compound 59, 3-[2-Oxo-3-(4-piperidin-1-yl-phenyl)-imidazolidin-1-yl]-benzoic acid]", "Activity": "****"}, {"smiles": "O=C(O)c1cccc(N2CCN(c3ccc(F)cc3F)C2=O)c1", "note": "[Compound 75, 3-[3-(2,4-Difluoro-phenyl)-2-oxo-imidazolidin-1-yl]-benzoic acid]", "Activity": "*"}, {"smiles": "O=C(O)c1cccc(N2C(=O)CN(c3ccc(Br)cc3)C2=O)c1", "note": "[Compound 29, 3-[3-(4-Bromo-phenyl)-2,5-dioxo-imidazolidin-1-yl]-benzoic acid]", "Activity": "*"}, {"smiles": "CC(C)c1ccc(-n2ccn(-c3cccc(C(=O)O)c3)c2=O)cc1", "note": "[Compound 35, 3-[3-(4-Isopropyl-phenyl)-2-oxo-2,3-dihydro-imidazol-1-yl]-benzoic acid]", "Activity": "***"}, {"smiles": "O=C(O)c1cccc(N2C(=O)CN(c3ccc(I)cc3)C2=O)c1", "note": "[Compound 23, 3-[3-(4-iodo-phenyl)-2,5-dioxo-imidazolidin-1-yl]-benzoic acid]", "Activity": "***"}, {"smiles": "CC(C)c1ccc(-n2ccn(-c3cccc(C(=O)O)c3)c2=S)cc1", "note": "[Compound 37, 3-[3-(4-Isopropyl-phenyl)-2-thioxo-2,3-dihydro-imidazol-1-yl]-benzoic acid]", "Activity": "*"}, {"smiles": "CC(C)(C)c1ccc(NC(=O)Nc2cccc(C(=O)O)c2)cc1", "note": "[Compound 33, 3-[3-(4-tert-Butylphenyl)-ureido]-benzoic acid]", "Activity": "**"}, {"smiles": "O=C(O)c1cccc(N2CCN(c3ccc(F)c(C(F)(F)F)c3)C2=O)c1", "note": "[Compound 63, 3-[3-(4-Fluoro-3-trifluoromethyl-phenyl)-2-oxo-imidazolidin-1-yl]-benzoic acid]", "Activity": "****"}, {"smiles": "CCOc1ccc(N2CC(=O)N(c3cccc(C(=O)O)c3)C2=O)cc1", "note": "[Compound 27, 3-[3-(4-Ethoxy-phenyl)-2,5-dioxo-imidazolin-1-yl]-benzoic acid]", "Activity": "*"}, {"smiles": "O=C(O)c1cccc(N2CCN(c3ccc4c(c3)OCCO4)C2=O)c1", "note": "[Compound 42, 3-[3-(2,3-Dihydro-benzo[1,4]dioxin-6-yl)-2-oxo-imidazolidin-1-yl]-benzoic acid]", "Activity": "*****"}, {"smiles": "CC(C)c1cccc(N2CCN(c3cccc(C(=O)O)c3)C2=O)c1", "note": "[Compound 36, 3-[3-(3-Isopropyl-phenyl)-2-oxo-imidazolidin-1-yl]-benzoic acid]", "Activity": "****"}, {"smiles": "O=C(O)c1cccc(N2CC(=O)N(c3cccc(Cl)c3Cl)C2=O)c1", "note": "[Compound 24, 3-[3-(2,3-dichloro-phenyl)-2,4-dioxo-imidazolidin-1yl]-benzoic acid]", "Activity": "*"}, {"smiles": "O=C(O)c1cccc(N2CC(=O)N(c3ccccc3F)C2=O)c1", "note": "[Compound 10, 3-[3-(2-fluoro-phenyl)-2,4-dioxo-imidazolidin-1-yl]-benzoic acid]", "Activity": "*"}, {"smiles": "O=C(O)c1cccc(N2CCN(c3ccc(OCC(=O)N4CCOCC4)cc3)C2=O)c1", "note": "[Compound 77, 3-{3-[4-(2-Morpholin-4-yl-2-oxo-ethoxy)-phenyl]-2-oxo-imidazolidin-1-yl}-benzoic acid]", "Activity": "*"}, {"smiles": "O=C(O)c1cccc(N2C(=O)CN(c3ccc(OC(F)(F)F)cc3)C2=O)c1", "note": "[Compound 30, 3-[2,5-Dioxo-3-(4-trifluoromethoxy-phenyl)-imidazolidin-1-yl]-benzoic acid]", "Activity": "*"}, {"smiles": "O=C(O)c1cccc(N2CCN(c3cccc(OC(F)(F)F)c3)C2=O)c1", "note": "[Compound 64, 3-[2-Oxo-3-(3-trifluoromethoxy-phenyl)-imidazolidin-1-yl]-benzoic acid]", "Activity": "****"}]}]}
